Assays:
[1] = test system: Anti-BSA antiserum; assay: Interaction of cobalt-labelled BSA conjugate with anti-BSA antibodies, supernatant Co by AAS; format: binding
Procedure: (1) Anti-BSA antiserum (100 μl) was added to each of four tubes numbered 1 to 4. The same volume (100 μl) of 0.01 M phosphate buffer was added to each of additional four tubes, numbered 5 to 8.
(2) A fixed volume (100 μl) of four dilutions of BSA-Cobalt labelled conjugate, containing 0.23, 0.47, 0.94 and 1.88 μg Co/ml (or 0.8, 1.6, 3.1 and 6.2 μg BSA conjugate/100 μl of sample) added to the tubes 1 to 4 respectively and similarly to tubes 5 to 8 respectively.
(3) The solutions were mixed on a Vortex, allowed to incubate for 1 hr. at 37° C. and then for 48 hrs. at 4° C.
(4) The tubes were then centrifuged for 30 min. at 4° C.
(5) The supernatant was analyzed for Co by atomic absorption.
The readings obtained from tubes 5 through 8 served as calibrating controls. The readings from tubes 1 through 4 then indicated the amount of free cobalt-labelled BSA left in solution (by difference the "bound" BSA antigen could be determined). The atomic absorption measurements were interpolated into the calibration curve and gave 0.00, 0.06, 0.59 and 1.25 μg Co/ml of "free" hapten, equivalent to a concentration of 0,0.2,2.0 and 4.3 μg BSA conjugate/100 μl of original sample in tubes 1,2,3 and 4 respectively.

[2] = test system: sepharose-bound anti-E2 (HS)-COOH antibodies; assay: Inhibition and cross-reaction experiments with E2(HS)-CONH-CH2-Fc; format: binding, rabbit
Procedure: A fixed volume (30 μl) of a solution of iron-labelled estradiol hemisuccinate, E2 (HS)-CONH-CH2 Fc, of suitable concentration (selected from the results obtained in Step (ii) above) was mixed with a constant volume (30 μl) of solutions of various concentrations of unlabelled hapten, estradiol hemisuccinate (or estrone-17-(0-Carboxymethyl)oxime, E1 (Ox)-COOH). This mixture was added to a constant volume (60 μl) of the sepharose-bound antibodies, Vortex-mixed for 1 min. and allowed to incubate at room temperature for 30 min. The Vortex-mixing was repeated at intervals of 10 min. The assay mixture was then centrifuged for 1 min. at 3000 r.p.m. Aliquots (30 μl) were extracted with an Eppendorf pipette and injected into the graphite tube of the AA instrument. The following controls were taken through the same procedure to determine specificity: (a) a suspension of sepharose-bound antibodies without addition of metal-labelled hapten; (b) the mixtures of metal-labelled and non-labelled haptens, without addition of the sepharose-bound antibodies; (c) the mixture of metal-labelled and non-labelled haptens with addition of sepharose-bound γ-globulins of normal rabbit serum.

BSA-Cobalt labelled conjugate: Bovine serum albumin labelled with carboxycobalticenium N-succinimide ester, about 35 haptens per mole
"free" hapten in supernatant ([1]; tube 1: conjugate 0.23 μg Co/ml, 100 μl + 100 μl antiserum, 1 hr 37° C., 48 hrs 4° C.): 0.00 μg Co/ml
"free" hapten in supernatant ([1]; tube 2: conjugate 0.47 μg Co/ml): 0.06 μg Co/ml
"free" hapten in supernatant ([1]; tube 3: conjugate 0.94 μg Co/ml): 0.59 μg Co/ml
free conjugate, equivalent concentration ([1]; tube 4: 6.2 μg BSA conjugate/100 μl added): 4.3 μg BSA conjugate/100 μl of original sample
"free" hapten in supernatant ([1]; tube 4: conjugate 1.88 μg Co/ml): 1.25 μg Co/ml

C[C@]12CC[C@@H]3c4ccc(O)cc4CC[C@H]3[C@@H]1CCC2=NOCC(=O)O [E1 (OX)--COOH, Extrone oxime-0-carboxymethyl]
Inhibition of E2 (HS)--CONH--CH2 Fc (27.5 × 10^-7 M), cross-reaction ([2]; unlabelled hapten 3.75 × 10^-7 M): 0.5%
Inhibition of E2 (HS)--CONH--CH2 Fc (27.5 × 10^-7 M), cross-reaction ([2]; unlabelled hapten 7.5 × 10^-7 M): 3.0%
Inhibition of E2 (HS)--CONH--CH2 Fc (27.5 × 10^-7 M), cross-reaction ([2]; unlabelled hapten 15.0 × 10^-7 M (E1 column)): 6.5%
Inhibition of E2 (HS)--CONH--CH2 Fc (27.5 × 10^-7 M), cross-reaction ([2]; unlabelled hapten 37.5 × 10^-7 M): 9.5%
Inhibition of E2 (HS)--CONH--CH2 Fc (27.5 × 10^-7 M), cross-reaction ([2]; unlabelled hapten 75.0 × 10^-7 M): 25.5%
Inhibition of E2 (HS)--CONH--CH2 Fc (27.5 × 10^-7 M), cross-reaction ([2]; unlabelled hapten 150.0 × 10^-7 M (E1 column)): 50.5%

C[C@]12CC[C@@H]3c4ccc(O)cc4CC[C@H]3[C@@H]1CC[C@@H]2OC(=O)CCC(=O)O [E2 (HS)--COOH, Estradiol-17β-hemisuccinate]
Inhibition of E2 (HS)--CONH--CH2 Fc (27.5 × 10^-7 M) ([2]; unlabelled hapten 3.6 × 10^-7 M): 8.5%
Inhibition of E2 (HS)--CONH--CH2 Fc (27.5 × 10^-7 M) ([2]; unlabelled hapten 7.2 × 10^-7 M): 17.5%
Inhibition of E2 (HS)--CONH--CH2 Fc (27.5 × 10^-7 M) ([2]; unlabelled hapten 15.0 × 10^-7 M (E2 column)): 21.5%
Inhibition of E2 (HS)--CONH--CH2 Fc (27.5 × 10^-7 M) ([2]; unlabelled hapten 36.0 × 10^-7 M): 43.5%
Inhibition of E2 (HS)--CONH--CH2 Fc (27.5 × 10^-7 M) ([2]; unlabelled hapten 72.0 × 10^-7 M): 48.0%
Inhibition of E2 (HS)--CONH--CH2 Fc (27.5 × 10^-7 M) ([2]; unlabelled hapten 150.0 × 10^-7 M (E2 column)): 56.0%
Inhibition of E2 (HS)--CONH--CH2 Fc (27.5 × 10^-7 M) ([2]; unlabelled hapten 300.0 × 10^-7 M): 63.5%
